The results in this text go back to the supplement of paper PMC11208160.

The nature of the data set: recombinant barcode read abundance after kanamycin selection (control-corrected) (log10(CPM+1)); higher = more efficient recombination; sequences stand for … in AGTGCAGAGAAAATCGGCCAGTTTTCTCTGCCTGCAGTCCGCATGCCGT…ATTTATGCAGCGGACTGCCTTTCTCCCAAAGTGATAAACCGGACAGTATCATGGACCGGTTTTCCCGGTAATCCGTATTTGCAAGGTTGGTTTCACT; site = the 11-nt target. Put shortly: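 Each value is log10(CPM+1). It describes recombination efficiency, taken as averaged, control-corrected counts per million of barcodes at recombinant junctions. The pooled E. coli library paired targets with IS621 bridge RNA target-binding loops, was co-electroporated with a donor plasmid, and was plated twice on chloramphenicol/ampicillin LB agar (control) and twice on chloramphenicol/ampicillin/kanamycin containing 0.1 mM IPTG.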
With “CGGTCCCATTGGGTTCTAACCTGTTGCCAAT [CGGTCCCCTTG_LTGcore_AT_RTGcore_AT] (site CGGTCCCCTTG) (LTG core: AT, RTG core: AT)”, the “recombinant barcode read abundance (log10)” value was 0.494.

For the sequence “CGGTCCCCATGGGTTCTAACCTGTTGCCAAG [CGGTCCCCTTG_LTGcore_CA_RTGcore_CT] (site CGGTCCCCTTG) (LTG core: CA, RTG core: CT)”, the “recombinant barcode read abundance (log10)” value was 0.51.

Regarding “CGGTCCCCCTGGGTTCTAACCTGTTGCCAGG [CGGTCCCCTTG_LTGcore_CC_RTGcore_CC] (site CGGTCCCCTTG) (LTG core: CC, RTG core: CC)”, the “recombinant barcode read abundance (log10)” value was 0.0887.

“CGGTCCCCGTGGGTTCTAACCTGTTGCCAAG [CGGTCCCCTTG_LTGcore_CG_RTGcore_CT] (site CGGTCCCCTTG) (LTG core: CG, RTG core: CT)”: the “recombinant barcode read abundance (log10)” value came out at 0.38.

Take “CGGTCCCCTTGGGTTCTAACCTGTTGCCAGA [CGGTCCCCTTG_LTGcore_CT_RTGcore_TC] (site CGGTCCCCTTG) (LTG core: CT, RTG core: TC)”: the “recombinant barcode read abundance (log10)” value came out at 0.0215.

As for “CGGTCCCCTTGGGTTCTAACCTGTTGCCAGG [CGGTCCCCTTG_LTGcore_CT_RTGcore_CC] (site CGGTCCCCTTG) (LTG core: CT, RTG core: CC)”, the “recombinant barcode read abundance (log10)” value stood at 0.129.

As for “CGGTCCCCTTGGGTTCTAACCTGTTGCCAGT [CGGTCCCCTTG_LTGcore_CT_RTGcore_AC] (site CGGTCCCCTTG) (LTG core: CT, RTG core: AC)”, the “recombinant barcode read abundance (log10)” value was found to be 0.258.

As for “CGGTCCCGATGGGTTCTAACCTGTTGCCAAG [CGGTCCCCTTG_LTGcore_GA_RTGcore_CT] (site CGGTCCCCTTG) (LTG core: GA, RTG core: CT)”, the “recombinant barcode read abundance (log10)” value was 0.197.

In the case of “CGGTCCCGATGGGTTCTAACCTGTTGCCATC [CGGTCCCCTTG_LTGcore_GA_RTGcore_GA] (site CGGTCCCCTTG) (LTG core: GA, RTG core: GA)”, the “recombinant barcode read abundance (log10)” value came to 0.3.

For the sequence “CGGTCCCGGTGGGTTCTAACCTGTTGCCAAG [CGGTCCCCTTG_LTGcore_GG_RTGcore_CT] (site CGGTCCCCTTG) (LTG core: GG, RTG core: CT)”, the “recombinant barcode read abundance (log10)” value was found to be 0.0912.

For the sequence “CGGTCCCGTTGGGTTCTAACCTGTTGCCAAG [CGGTCCCCTTG_LTGcore_GT_RTGcore_CT] (site CGGTCCCCTTG) (LTG core: GT, RTG core: CT)”, the “recombinant barcode read abundance (log10)” value was found to be 0.292.

As to “GAGCCCAAATGGGTTCTAACCTGTTGCCTTT [GAGCCCACTAG_LTGcore_AA_RTGcore_AA] (site GAGCCCACTAG) (LTG core: AA, RTG core: AA)”, the “recombinant barcode read abundance (log10)” value is 0.102.

For “GAGCCCAACTGGGTTCTAACCTGTTGCCTAG [GAGCCCACTAG_LTGcore_AC_RTGcore_CT] (site GAGCCCACTAG) (LTG core: AC, RTG core: CT)”, the “recombinant barcode read abundance (log10)” value was 0.135.

On to “GAGCCCAAGTGGGTTCTAACCTGTTGCCTAG [GAGCCCACTAG_LTGcore_AG_RTGcore_CT] (site GAGCCCACTAG) (LTG core: AG, RTG core: CT)”, for which the “recombinant barcode read abundance (log10)” value is 0.0502.

As for “GAGCCCAATTGGGTTCTAACCTGTTGCCTAG [GAGCCCACTAG_LTGcore_AT_RTGcore_CT] (site GAGCCCACTAG) (LTG core: AT, RTG core: CT)”, the “recombinant barcode read abundance (log10)” value worked out at 0.204.

Turning to “GAGCCCACATGGGTTCTAACCTGTTGCCTTG [GAGCCCACTAG_LTGcore_CA_RTGcore_CA] (site GAGCCCACTAG) (LTG core: CA, RTG core: CA)”, the “recombinant barcode read abundance (log10)” value is 0.49.

As for “GAGCCCACCTGGGTTCTAACCTGTTGCCTAG [GAGCCCACTAG_LTGcore_CC_RTGcore_CT] (site GAGCCCACTAG) (LTG core: CC, RTG core: CT)”, the “recombinant barcode read abundance (log10)” value is 0.29.

With “GAGCCCACGTGGGTTCTAACCTGTTGCCTCG [GAGCCCACTAG_LTGcore_CG_RTGcore_CG] (site GAGCCCACTAG) (LTG core: CG, RTG core: CG)”, the “recombinant barcode read abundance (log10)” value is 0.282.
